Results: the supplement of paper PMC10307832

Tests used:
Experiment in all cases: relative viability (nuclei count vs DMSO), 5 days (fraction); higher = more cells survive
TPCA-1 + Luminespib = compound: C1=CC(=CC=C1C2=CC(=C(S2)NC(=O)N)C(=O)N)F [TPCA-1] + CCNC(=O)c1noc(-c2cc(C(C)C)c(O)cc2O)c1-c1ccc(CN2CCOCC2)cc1 [Luminespib] (partner 0.01 µM)
Method in brief: (§1)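 After 5 days of treatment, lung cancer cells in 1536-well plates were fixed and stained in a single step (final 0.05% Triton X-100, 1% formaldehyde, 1 ug/ml Hoechst) and their nuclei counted on 4× images. Treatment had been applied by pin tool the day after seeding as one drug alone or as a fixed anchor-drug dose with five library-drug doses (not always all listed) in √10 steps. Relative viability is the nuclei count of treated wells divided by that of vehicle wells, and values are medians of duplicate plates.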

[1] = compound: C[C@]12O[C@H](C[C@]1(O)CO)n1c3ccccc3c3c4c(c5c6ccccc6n2c5c31)CNC4=O [Lestaurtinib] + CCNC(=O)c1noc(-c2cc(C(C)C)c(O)cc2O)c1-c1ccc(CN2CCOCC2)cc1 [Luminespib] (partner 0.01 µM)
Method in brief: as §1

[2] = compound: C[C@]12O[C@H](C[C@]1(O)CO)n1c3ccccc3c3c4c(c5c6ccccc6n2c5c31)CNC4=O [Lestaurtinib] + C[C@@H](Oc1cc(-c2cnn(C3CCNCC3)c2)cnc1N)c1c(Cl)ccc(F)c1Cl [Crizotinib] (partner 1 µM)
Method in brief: as §1

[3] = compound: C[C@]12O[C@H](C[C@]1(O)CO)n1c3ccccc3c3c4c(c5c6ccccc6n2c5c31)CNC4=O [Lestaurtinib] + N=C(N)NC(=N)NCCc1ccccc1 [Phenformin] (partner 250 µM)
Method in brief: as §1

Row | Cell Line | relative viability (TPCA-1 + Luminespib; first compound 0.04 µM) | relative viability (TPCA-1 + Luminespib; first compound 0.1265 µM) | relative viability (TPCA-1 + Luminespib; first compound 0.4 µM) | relative viability (TPCA-1 + Luminespib; first compound 1.265 µM) | relative viability (TPCA-1 + Luminespib; first compound 4 µM) | relative viability ([1]; first compound 0.005 µM) | relative viability ([1]; first compound 0.01581 µM) | relative viability ([1]; first compound 0.05 µM) | relative viability ([1]; first compound 0.1581 µM) | relative viability ([1]; first compound 0.5 µM) | relative viability ([2]; first compound 0.005 µM) | relative viability ([2]; first compound 0.01581 µM) | relative viability ([2]; first compound 0.05 µM) | relative viability ([2]; first compound 0.1581 µM) | relative viability ([2]; first compound 0.5 µM) | relative viability ([3]; first compound 0.005 µM) | relative viability ([3]; first compound 0.01581 µM) | relative viability ([3]; first compound 0.05 µM) | relative viability ([3]; first compound 0.1581 µM) | relative viability ([3]; first compound 0.5 µM)
1 | NCI-H727 | 0.531 | 0.453 | 0.439 | 0.487 | 0.432 | 0.478 | 0.401 | 0.427 | 0.284 | 0.387 | 1.26 | 0.911 | 0.718 | 0.613 | 0.323 | 0.475 | 0.655 | 0.648 | 0.515 | 0.298
2 | HARA | 0.791 | 0.754 | 0.864 | 0.83 | 0.382 | 0.682 | 0.847 | 0.681 | 0.872 | 0.0984 | 1.19 | 1.21 | 0.86 | 0.994 | 0.162 | 0.507 | 0.477 | 0.369 | 0.358 | 0.251
3 | NCI-H2228 | 0.174 | 0.139 | 0.124 | 0.131 | 0.117 | 0.185 | 0.144 | 0.137 | 0.123 | 0.109 | 0.512 | 0.442 | 0.415 | 0.21 | 0.255 | 0.235 | 0.215 | 0.237 | 0.218 | 0.127
4 | LCLC-97TM1 | 0.877 | 0.614 | 0.71 | 0.541 | 0.482 | 0.71 | 0.678 | 0.363 | 0.62 | 0.233 | 0.382 | 0.293 | 0.241 | 0.259 | 0.149 | 0.47 | 0.442 | 0.403 | 0.325 | 0.2
5 | LC-2-ad | 1.13 | 1.01 | 0.826 | 0.908 | 0.663 | 1.1 | 1.21 | 0.799 | 0.617 | 0.372 | 0.467 | 0.325 | 0.433 | 0.366 | 0.251 | 0.554 | 0.772 | 0.561 | 0.385 | 0.26
6 | SK-LU-1 | 0.232 | 0.203 | 0.212 | 0.206 | 0.215 | 0.206 | 0.22 | 0.177 | 0.203 | 0.215 | 0.663 | 0.915 | 0.433 | 0.516 | 0.312 | 0.46 | 0.488 | 0.293 | 0.329 | 0.163
7 | EKVX | 0.885 | 0.845 | 0.933 | 0.756 | 0.809 | 0.951 | 0.876 | 0.999 | 0.821 | 0.541 | 0.855 | 1.11 | 0.945 | 0.892 | 0.551 | 0.207 | 0.245 | 0.231 | 0.244 | 0.239
8 | NCI-H2342 | 0.921 | 0.66 | 0.819 | 0.754 | 0.694 | 0.779 | 0.624 | 0.651 | 0.738 | 0.7 | – | – | – | – | – | 0.545 | 0.656 | 0.551 | 0.652 | 0.613
9 | SW 900 | 0.179 | 0.176 | 0.212 | 0.201 | 0.176 | 0.172 | 0.146 | 0.151 | 0.159 | 0.178 | – | – | – | – | – | 0.69 | 0.715 | 0.63 | 0.803 | 0.4
10 | IA-LM | – | – | – | – | – | – | – | – | – | – | 0.862 | 1.06 | 1.14 | 0.921 | 0.415 | – | – | – | – | –
11 | EBC-1 | – | – | – | – | – | – | – | – | – | – | 0.182 | 0.225 | 0.183 | 0.184 | 0.175 | – | – | – | – | –
12 | HCC-366 | – | – | – | – | – | – | – | – | – | – | 0.711 | 0.649 | 0.418 | 0.758 | 0.219 | 0.618 | 0.642 | 0.656 | 0.603 | 0.48
13 | NCI-H1299 | – | – | – | – | – | – | – | – | – | – | 0.912 | 0.953 | 0.542 | 0.68 | 0.467 | – | – | – | – | –
14 | A549 | – | – | – | – | – | – | – | – | – | – | 0.77 | 0.771 | 0.227 | 0.183 | 0.0593 | 0.204 | 0.141 | 0.16 | 0.1 | 0.045
15 | NCI-H1793 | 0.173 | – | 0.142 | 0.142 | 0.134 | 0.193 | 0.249 | 0.156 | 0.154 | 0.161 | – | – | – | – | – | 0.353 | 0.447 | 0.296 | 0.436 | 0.3
16 | NCI-H1623 | 0.601 | 0.555 | 0.54 | 0.433 | 0.426 | 0.6 | 0.617 | 0.406 | 0.352 | 0.444 | – | – | – | – | – | 0.609 | 0.593 | 0.557 | 0.525 | 0.51
17 | NCI-H1703 | – | – | – | – | – | – | – | – | – | – | 0.81 | 0.524 | 0.263 | 0.257 | 0.0934 | – | – | – | – | –
18 | HCC-78 | – | – | – | – | – | – | – | – | – | – | 0.318 | 0.396 | 0.318 | 0.287 | 0.267 | 0.658 | 0.816 | 0.556 | 0.425 | 0.406
19 | NCI-H1395 | 0.762 | 0.695 | 0.647 | 0.709 | 0.644 | 0.654 | 0.668 | 0.616 | 0.472 | 0.374 | – | – | – | – | – | 0.451 | 0.432 | 0.422 | 0.484 | 0.312
20 | NCI-H522 | 1.13 | 0.946 | 1.22 | 1.15 | 0.84 | 1.3 | 1.01 | 1.08 | 1.03 | 0.699 | – | – | – | – | – | 0.722 | 0.614 | 0.634 | 0.552 | 0.525
21 | Calu-6 | – | – | – | – | – | – | – | – | – | – | 0.753 | 0.784 | 0.282 | 0.293 | 0.16 | – | – | – | – | –
